Reference: US11771692B2, “N-hydroxyethyl didehydroazapodophyllotoxins as GBP1 inhibitors and methods of overcoming treatment resistance in cancer” (The Board of Trustees of the Leland Stanford Junior …, priority 2018, dated 2023)
“Also recorded” adds a separate entry of the source.

Key:
SKOV3 = experiment: MTT cytotoxicity assay, SKOV3; assay type: cell-based; details: Homo sapiens, SK-OV-3; SKOV3 ovarian cancer cell line
Description: (§1) FIG. 3, panels A-E. FIG. 3, panel A illustrates the effects of SU093 on survival of human normal HEK293 cell line and ovarian cancer cell lines OVCAR8 & SKOV3 cells via MTT assay. FIG. 3, panel B illustrates the effect of SU093 on GBP1 and PIM1 expression in OVCAR8 cells. […] FIG. 3, panel D illustrates quantification of overexpression and knockdown of GBP1 gene in stably transfected OVCAR8 cells. FIG. 3, panel E illustrates cytotoxicity of SU093 as evaluated in GBP1-OV, GBP1-WT and GBP1-KD OVCAR8 via MTT assay.
(§2) Furthermore, OVCAR8 cells with overexpressed (OV) and knockdown (KD) of GBP1 gene were created (FIG. 3, panel D) and cell viability experiments were performed on GBP1-WT (wild-type), GBP1-OV and GBP1-KD OVCAR8 cells at different doses of SU093.

[1] = tested on: GBP1-OV and GBP1-KD OVCAR8 cells; experiment: MTT cell viability in GBP1-WT, GBP1-OV and GBP1-KD OVCAR8 cells; assay type: cell-based
Description: as §1, §2

GBP1 [2] = experiment: Confocal microscopy of GBP1 and β-tubulin in SCC-90 cells; assay type: cell-based; details: SCC-90, SU093 50 nM, 6 h
Description: (§3) The potential for GBP1 inhibition and radiosensitzation in head and neck cancer cells was also investigated.

GBP1 [3] = experiment: Immunoblotting and cycloheximide chase of GBP1 protein in SCC-90 HNC cells; assay type: cell-based
Description: as §3

B2M = B2M expression in SCC-90 cells; assay type: cell-based; details: SCC-90 cells treated with SU093
Description: Down-regulation of Major Histocompatibility Complex class I molecules (MHC-I) expression is a widespread phenomenon used by tumor cells to escape antitumor T-cell-mediated immune responses. Reduction in B2-microglobulin (B2M, a molecule associated with MHC-I) helps cancer cells to hide them from immune system (Hicklin, D. J.; Marincola, F. M.; Ferrone, S., HLA class I antigen downregulation in human cancers: T-cell immunotherapy revives an old story. Molecular Medicine Today 1999, S (4), 178-186.) In experiments conducted herein, reduced expression B2M in GBP1-OV cells was observed (FIG. 1, panel F).

OVCAR8 = experiment: MTT cytotoxicity assay, OVCAR8; assay type: cell-based; details: Homo sapiens, OVCAR-8, Ovarian
Experimental: It was observed that SU093 was highly cytotoxic for all cell lines tested with IC50 values in the nanomolar range.
as §2

[4] = In vivo pharmacokinetics, plasma concentration by LCMS; details: C57BL/6, mouse, C57BL6 female mice, single 10 mg/kg IP
Experimental: FIG. 7, panel A illustrates in vivo PK studies, C57BL/6 mice. Drug concentration in plasma was quantified at different time points using LCMS after a single IP injection of SU093. FIG. 7, panel B illustrates the drug concentration in harvested ovaries and liver of C57BL/6 mice after 14 days of administration with SU093 (100 mg/kg) by daily IP injection.
To investigate the pharmacokinetics and toxicity of the subject GBP1 inhibitors, in vivo pharmacokinetic studies with SU093 were conducted and the drug concentration in mice plasma at different time points after injection was determined (e.g. after 5, 10, 30, 60, 120, 360 minutes after injection). Non-tumor-bearing C57BL6 female mice (n=3/group of each time point) were used for these studies and the drug was administered in a single dose of 10 mg/kg intrepertoneally (IP) at different time points. After each time point 150 microliters of blood was withdraw from retro orbital sinus from the respective group of anesthetized (isoflurane) mice. Plasma was separated from each blood sample and mixed with an equal volume of acetonitrile (w/v). Precipitated protein was separated by centrifugation at 12,000 RPM for 10 min at 4° C. Clear supernatant was analyzed for quantification of SU093 using liquid chromatography mass spectroscopy (LCMS).

SCC-90 tumor xenograft = experiment: Head and neck SCC-90 tumor xenograft in nude mice; assay type: in vivo; details: SCC-90, nude mice
Experimental: An immunodeficient nude mice model was also used to study the in vivo potential of SU093 and SU056 for head and neck cancer. Nude mice (n=3/group) were subcutaneously injected in the right flank with 5×10^6 SCC-90 cells mixed with matrigel and observed regularly until the tumor size reached about 200 mm^3. The treatment regime with drugs including dose, formulation and route of delivery was similar to ovarian cancer study discussed above. Doses of SU093 and SU056 were administered daily until 35 days and mice were sacrificed thereafter. […] At the end of 35 days, calculated tumor volume/mouse was 860.33±21.78 mm^3, 694.67±14.64 mm^3, and 435.00±10.81 mm^3 for control, SU093 and SU056 treatment groups, respectively. This equates to a 20% and 50% reduction in tumor volume for SU093 and SU056 treatment groups, respectively. A decrease in tumor weight of about 21% (P value not significant) and 54% (P<0.002) was also observed for the SU093 and SU56 treatment groups, respectively.

GBP1 and PIM1 = experiment: Immunoblotting of GBP1 and PIM1 expression in OVCAR8 cells; assay type: cell-based
GBP1 [5] = experiment: cell-based reporter assay, OVCAR-8 stably transfected with GBP-1-luciferase; details: OVCAR-8 GBP-1-luciferase
Description: Exemplary compounds (1)-(17) and previously identified compound SU093 (Andreoli, M., Persico, M.; Kumar, A.; Orteca, N.; Kumar, V.; Pepe, A.; Mahalingam, S.; Alegria, A. E.; Petrella, L.; Sevciunaite, L.; Camperchioli, A.; Mariani, M.; Di Dato, A.; Novellino, E.; Scambia, G., Malhotra, S. V.; Ferlini, C.; Fattorusso, C., Identification of the First Inhibitor of the GBP1:PIM1 Interaction. Implications for the Development of a New Class of Anticancer Agents against Paclitaxel Resistant Cancer Cells. Journal of Medicinal Chemistry 2014, 57 (19), 7916-7932) were tested for GBP1 inhibition using a cell-based reporter assay in ovarian cancer cell line OVCAR-8 stably transfected with GBP-1-luciferase. Tables 1 and 2 below outlines the percentage of GBP1 expression in OVCAR-8 cells for each of the 17 compounds tested.

COc1ccc2c(c1)N(CCO)C1=C(C(=O)OC1)C2c1ccccc1 (centres unmarked) [SU093]
IC50 (SKOV3): 2.68 nM
cytotoxicity compared to GBP1-WT ([1]; GBP1-KD OVCAR8 cells): enhanced cytotoxicity
cytotoxicity compared to GBP1-WT ([1]; GBP1-OV OVCAR8 cells): reduced cytotoxicity
GBP1 nuclear translocation and β-tubulin expression (GBP1 [2]): inhibits the nuclear translocation of GBP1 protein and reduces the tubulin expression; also recorded: blocking its nuclear translocation and reducing β-tubulin expression
GBP1 protein degradation, cyclohexamide chase (GBP1 [3]; SCC-90): degradation of GBP1 protein and reduction of its half-life
GBP1 protein expression (GBP1 [3]; SCC-90, western blot, 24 h): inhibition in GBP1 expression; also recorded: inhibited GBP1 protein expression
B2M expression (B2M): induced expression of B2M
IC50 (OVCAR8): 2.49 nM
Cmax [4]: 1600 ng/mL
Tmax [4]: 5 min
half-life [4]: 60 min
tumor volume/mouse (SCC-90 tumor xenograft; 20 mg/kg IP daily, end of 35 days): 694.67±14.64 mm^3
decrease in tumor weight (SCC-90 tumor xenograft; 35 days, vs control): about 21%
reduction in tumor volume (SCC-90 tumor xenograft; 35 days, vs control): 20%
GBP1 and PIM1 expression (GBP1 and PIM1): inhibits GBP1 and PIM1 expressions in a dose-dependent manner
% GBP1 expression OVCAR-8 @5 nM (GBP1 [5]; 5 nM): 60.3%
% GBP1 expression OVCAR-8 @10 nM (GBP1 [5]; 10 nM): 51.0%
